One assay addresses T1, TBK1 (Homo sapiens, UniProt Q9UHD2).
T1 construct: purchased Promega V3991
T1 sequence (Q9UHD2 1-729): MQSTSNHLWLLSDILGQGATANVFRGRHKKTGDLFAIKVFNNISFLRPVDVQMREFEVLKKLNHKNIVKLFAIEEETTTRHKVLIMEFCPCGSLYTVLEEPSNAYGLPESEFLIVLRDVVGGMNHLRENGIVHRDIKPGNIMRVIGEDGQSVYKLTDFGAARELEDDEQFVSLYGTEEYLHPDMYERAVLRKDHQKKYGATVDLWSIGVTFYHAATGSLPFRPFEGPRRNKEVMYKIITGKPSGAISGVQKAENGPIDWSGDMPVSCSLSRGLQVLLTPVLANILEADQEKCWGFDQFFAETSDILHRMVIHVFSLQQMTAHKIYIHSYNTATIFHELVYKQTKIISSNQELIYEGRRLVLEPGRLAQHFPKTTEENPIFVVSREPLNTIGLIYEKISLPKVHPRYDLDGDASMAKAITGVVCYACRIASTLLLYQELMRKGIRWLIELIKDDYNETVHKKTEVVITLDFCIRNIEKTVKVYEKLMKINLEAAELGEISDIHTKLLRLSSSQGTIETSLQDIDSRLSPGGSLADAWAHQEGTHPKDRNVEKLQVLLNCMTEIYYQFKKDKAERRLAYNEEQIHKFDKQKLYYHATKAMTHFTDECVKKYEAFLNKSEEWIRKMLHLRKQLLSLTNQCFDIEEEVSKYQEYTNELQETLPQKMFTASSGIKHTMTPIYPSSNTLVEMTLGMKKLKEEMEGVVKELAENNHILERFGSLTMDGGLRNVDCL
Nature of the assay: TBK1 inhibition, ADP-Glo Kinase Assay. The class given is biochemical. To be noted: luminometer. How it is done:
(§1) Inhibition activities on TNIK, IKKε and TBK1 were evaluated using the compounds of Examples 1 to 254.
(§2) The inhibition activities on TNIK, IKKε and TBK1 were measured by a luminometer, TNIK/IKKε/TBK1 Kinase Enzyme System (Promega, Ca# V4158; Invitrogen, PR8031B, Promega, Ca# V3991) and ADP-Glo Kinase Assay using ADP-Glo™ Kinase Analysis Kit (Promega, Ca# V9101) and a kinase reaction buffer [40 mM Tris(pH 7.5), 20 mM MgCl2, 0.1 mg/mL BSA] in accordance with the manufacturer's protocol.

The target in a further assay is T2, IKKε (Homo sapiens, UniProt Q14164).
T2 construct: purchased Invitrogen PR8031B
T2 sequence (Q14164 1-716): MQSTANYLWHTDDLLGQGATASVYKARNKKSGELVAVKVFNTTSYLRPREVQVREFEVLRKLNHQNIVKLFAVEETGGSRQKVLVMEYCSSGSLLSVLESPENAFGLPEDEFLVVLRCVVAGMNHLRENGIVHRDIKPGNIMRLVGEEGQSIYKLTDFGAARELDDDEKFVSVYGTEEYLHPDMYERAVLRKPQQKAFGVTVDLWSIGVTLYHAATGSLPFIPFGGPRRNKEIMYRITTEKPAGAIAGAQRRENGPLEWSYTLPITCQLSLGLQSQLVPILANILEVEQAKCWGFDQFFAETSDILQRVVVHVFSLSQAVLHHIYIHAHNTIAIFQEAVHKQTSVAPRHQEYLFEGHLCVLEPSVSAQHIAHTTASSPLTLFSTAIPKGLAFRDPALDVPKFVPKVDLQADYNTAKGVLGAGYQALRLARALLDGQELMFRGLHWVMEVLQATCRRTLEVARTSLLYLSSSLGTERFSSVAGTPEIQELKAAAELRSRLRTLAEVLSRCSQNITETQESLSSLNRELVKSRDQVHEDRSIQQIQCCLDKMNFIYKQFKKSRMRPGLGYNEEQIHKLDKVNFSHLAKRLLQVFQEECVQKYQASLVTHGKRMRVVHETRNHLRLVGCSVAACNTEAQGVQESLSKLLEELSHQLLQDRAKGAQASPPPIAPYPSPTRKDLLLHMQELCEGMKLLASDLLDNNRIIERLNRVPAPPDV
Nature of the assay: IKKε inhibition, ADP-Glo Kinase Assay. The class given is biochemical. To be noted: luminometer. As for the experimental part:
as §1, §2

As for `CN1CCN(c2ccc(C(=O)Nc3n[nH]c4ccc(C(=O)NCc5cnco5)cc34)cc2)CC1` [Example 172, 3-(4-(4-Methylpiperazin-1-yl)benzamido)-N-(oxazol-5-ylmethyl)-1H-indazole-5-carboxamide], the IC50 turned out to be 0.035 µM on TBK1 and 0.31 µM at IKKε.
Regarding `C[C@H](NC(=O)c1ccc2[nH]nc(NC(=O)c3ccc(N4CCN(C)CC4)cc3)c2c1)c1ccccc1` [Example 176, (S)-3-(4-(4-Methylpiperazin-1-yl)benzamido)-N-(1-phenylethyl)-1H-indazole-5-carboxamide], the IC50 against TBK1 is 0.058 µM; against IKKε, 0.34 µM.
As to `CC(C)CC(NC(=O)c1ccc2[nH]nc(NC(=O)c3ccc(F)cc3)c2c1)c1cccs1` (stereo not drawn) [Example 33, 3-(4-Fluorobenzamido)-N-(3-methyl-1-(thiophen-2-yl)butyl)-1H-indazole-5-carboxamide], the values for the IC50 on TBK1 and at IKKε were 4.69 µM and 6.36 µM, respectively.
Regarding `CCC(NC(=O)c1ccc2[nH]nc(NC(=O)c3ccc(N4CCN(C)CC4)cc3)c2c1)c1cccs1` (stereo not drawn) [Example 55, 3-(4-(4-Methylpiperazin-1-yl)benzamido)-N-(1-(thiophen-2-yl)propyl)-1H-indazole-5-carboxamide], the IC50 against TBK1 amounted to 0.00093 µM; at IKKε it was 0.0027 µM.
With `O=C(Nc1n[nH]c2ccc(C(=O)NC3(c4ccccn4)CC3)cc12)c1ccc(F)cc1` [Example 216, 3-(4-Fluorobenzamido)-N-(1-(pyridin-2-yl)cyclopropyl)-1H-indazole-5-carboxamide], the IC50 on TBK1 turned out to be 3.7 µM; against IKKε, 5.25 µM.
For the compound `CC(NC(=O)c1ccc2[nH]nc(NC(=O)c3ccc(N4CCOCC4)cc3)c2c1)c1ccccn1` (stereo not drawn) [Example 127, 3-(4-Morpholinobenzamido)-N-(1-(pyridin-2-yl)ethyl)-1H-indazole-5-carboxamide], the IC50 at TBK1 is 0.027 µM; on IKKε, 0.14 µM.
In the same order, the values of `CC(NC(=O)c1ccc2[nH]nc(NC(=O)c3ccc(F)cc3)c2c1)c1ccncc1` (stereo not drawn) [Example 214, 3-(4-Fluorobenzamido)-N-(1-(pyridin-4-yl)ethyl)-1H-indazole-5-carboxamide] are 0.27 µM and 0.59 µM.
`O=C(NCc1cccs1)c1ccc2[nH]nc(NC(=O)c3ccc(NCC4CCCCC4)cc3)c2c1` [Example 166, 3-(4-((Cyclohexylmethyl)amino)benzamido)-N-(thiophen-2-ylmethyl)-1H-indazole-5-carboxamide] returned an IC50 against TBK1 of 0.26 µM.
Still for that read-out and setting: the value for `CC(C)(C)OC(=O)N1CCC[C@H]1C(=O)Nc1ccc(C(=O)Nc2n[nH]c3ccc(C(=O)NCc4cccs4)cc23)cc1` [Example 210, tert-Butyl (S)-2-((4-((5-((thiophen-2-ylmethyl)carbamoyl)-1H-indazol-3-yl)carbamoyl)phenyl)carbamoyl)pyrrolidine-1-carboxylate] was 0.12 µM; that for `COc1ccc(C(=O)Nc2n[nH]c3ccc(C(=O)N(C)Cc4cccs4)cc23)cc1` [Example 4, 3-(4-Methoxybenzamido)-N-methyl-N-(thiophen-2-ylmethyl)-1H-indazole-5-carboxamide] was 0.83 µM.
Regarding `COc1ccc(C(=O)Nc2n[nH]c3ccc(NCc4cccs4)cc23)cc1` [Example 11, 4-Methoxy-N-(5-((thiophen-2-ylmethyl)amino)-1H-indazol-3-yl)benzamide], the half-inhibitory concentration (IC50) against TBK1 worked out at 0.89 µM.
`O=C(NCc1cccs1)c1ccc2[nH]nc(NC(=O)c3cccc([N+](=O)[O-])c3)c2c1` [Example 204, 3-(3-Nitrobenzamido)-N-(thiophen-2-ylmethyl)-1H-indazole-5-carboxamide]: the IC50 against TBK1 worked out at 0.077 µM.
In the case of `O=C(NCc1cccs1)c1ccc2[nH]nc(NC(=O)c3ccc(N4CCOCC4)cc3N3CCOCC3)c2c1` [Example 168, 3-(2,4-Dimorpholinobenzamido)-N-(thiophen-2-ylmethyl)-1H-indazole-5-carboxamide], inhibition against TBK1 was half-maximal at 6.6 µM (IC50).
As for `O=C(NCc1cccs1)c1ccc2[nH]nc(NC(=O)c3ccc(NC(=O)C4CCC4)cc3)c2c1` [Example 206, 3-(4-(Cyclobutanecarboxamido)benzamido)-N-(thiophen-2-ylmethyl)-1H-indazole-5-carboxamide], on TBK1, the IC50 came out at 0.026 µM.
For `Nc1ccc(C(=O)Nc2n[nH]c3ccc(C(=O)NCc4cccs4)cc23)cc1` [Example 205, 3-(4-Aminobenzamido)-N-(thiophen-2-ylmethyl)-1H-indazole-5-carboxamide], the IC50 on TBK1 was 0.003 µM.
The compound `CSc1ccc(C(=O)Nc2n[nH]c3ccc(C(=O)NCc4cccs4)cc23)cc1` [Example 6, 3-(4-(Methylthio)benzamido)-N-(thiophen-2-ylmethyl)-1H-indazole-5-carboxamide] yielded an IC50 against TBK1 of 0.025 µM.
`CCCCCCNc1ccc(C(=O)Nc2n[nH]c3ccc(C(=O)NCc4cccs4)cc23)cc1` [Example 161, 3-(4-(Hexylamino)benzamido)-N-(thiophen-2-ylmethyl)-1H-indazole-5-carboxamide]: the IC50 against TBK1 was found to be 0.76 µM.
At TBK1, `O=C(NCc1cccs1)c1ccc2[nH]nc(NC(=O)c3ccc(NC4CCCCCCC4)cc3)c2c1` [Example 165, 3-(4-(Cyclooctylamino)benzamido)-N-(thiophen-2-ylmethyl)-1H-indazole-5-carboxamide] yielded an IC50 of 0.43 µM.
Compound `O=C(NCc1cccs1)c1ccc2[nH]nc(NC(=O)c3ccc(NCCn4cccc4)cc3)c2c1` [Example 169, 3-(4-((2-(1H-Pyrrol-1-yl)ethyl)amino)benzamido)-N-(thiophen-2-ylmethyl)-1H-indazole-5-carboxamide] came in with an IC50 at TBK1 of 0.03 µM.
On the same count and under the same terms, the value for `O=C(Nc1n[nH]c2ccc(C(=O)NC(c3cccs3)C3CC3)cc12)c1ccc(F)cc1` (stereo not drawn) [Example 30, N-(Cyclopropyl(thiophen-2-yl)methyl)-3-(4-fluorobenzamido)-1H-indazole-5-carboxamide] was 0.036 µM; that for `O=C(NCc1ccncc1)c1ccc2[nH]nc(NC(=O)c3ccc(F)cc3)c2c1` [Example 29, 3-(4-Fluorobenzamido)-N-(pyridin-4-ylmethyl)-1H-indazole-5-carboxamide] was 0.28 µM; that for `CC(NC(=O)c1ccc2[nH]nc(NC(=O)c3ccc(F)cc3)c2c1)c1cccs1` (stereo not drawn) [Example 14, 3-(4-Fluorobenzamido)-N-(1-(thiophen-2-yl)ethyl)-1H-indazole-5-carboxamide] was 0.042 µM.
On to `COc1ccc(C(=O)Nc2n[nH]c3ccc(C(=O)N4CCc5ccsc5C4)cc23)cc1` [Example 5, 4-Methoxy-N-(5-(4,5,6,7-tetrahydrothieno[2,3-c]pyridine-6-carbonyl)-1H-indazol-3-yl)benzamide], for which it took 8.4 µM to reach half-maximal inhibition against TBK1 (IC50).
Same read-out and setting: the value for `CN1CCN(c2ccc(C(=O)Nc3n[nH]c4ccc(C(=O)NCc5cccs5)cc34)c(F)c2)CC1` [Example 170, 3-(2-Fluoro-4-(4-methylpiperazin-1-yl)benzamido)-N-(thiophen-2-ylmethyl)-1H-indazole-5-carboxamide] was > 10 µM.
`CC(C)(C)c1ccc(C(=O)Nc2n[nH]c3ccc(C(=O)NCc4cccs4)cc23)cc1` [Example 10, 3-(4-tert-Butylbenzamido)-N-(thiophen-2-ylmethyl)-1H-indazole-5-carboxamide] yielded a half-inhibitory concentration (IC50) at TBK1 of 0.03 µM.
As for `CN(Cc1cccs1)C(=O)c1ccc2[nH]nc(NC(=O)c3ccc(N4CCOCC4)cc3)c2c1` [Example 42, N-Methyl-3-(4-morpholinobenzamido)-N-(thiophen-2-ylmethyl)-1H-indazole-5-carboxamide], the IC50 at TBK1 is 0.2 µM.

The values above are taken from US10294207B2, “Pyrazole derivatives as TNIK, IKKϵ and TBK1 inhibitor and pharmaceutical composition comprising same” (GREEN CROSS CORPORATION, priority 2015, dated 2019).
